Source: US9988381B2, “Five-member-heterocycle fused pyridine compounds, method of producing the same, and use thereof” (SHANGHAI INSTITUTE OF MATERIA MEDICA, CHINESE ACADEMY OF …, priority 2013, dated 2018)
Like-named read-outs stand apart in the source and are kept apart here. Values belong to the compound of their own block, whether it stands above or below them.

What was measured:
[1] = biological target: T1, c-Met kinase domain recombinant protein (Homo sapiens, UniProt P08581); experiment: biochemical; conditions: read-out: Inhibition rate at 10 μM (%)
T1 construct: 50 μL diluted solution of c-Met kinase domain recombinant protein in reaction buffer was added to initiate the reaction
T1 sequence (P08581 1078-1345 limits assumed): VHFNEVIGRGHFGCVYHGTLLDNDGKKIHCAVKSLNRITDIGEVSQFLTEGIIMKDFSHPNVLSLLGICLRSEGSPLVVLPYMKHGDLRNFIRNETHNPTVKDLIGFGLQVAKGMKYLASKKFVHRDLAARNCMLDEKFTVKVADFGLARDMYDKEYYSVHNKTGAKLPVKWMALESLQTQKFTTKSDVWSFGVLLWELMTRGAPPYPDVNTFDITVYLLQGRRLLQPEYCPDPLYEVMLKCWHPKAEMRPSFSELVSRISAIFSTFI
Method in brief: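 Recombinant c-Met kinase domain phosphorylated immobilised Poly(Glu,Tyr)4:1 for 1 h at 37 °C in 50 mM HEPES pH 7.4, 50 mM MgCl2, 0.5 mM MnCl2, 0.2 mM Na3VO4, 1 mM DTT with ATP. Product measured by anti-phosphotyrosine PY99 ELISA (HRP, 490 nm), giving percent inhibition; ATP-free wells served as control.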

[2] = biological target: T1, c-Met kinase domain recombinant protein; experiment: biochemical; conditions: for inhibition at 0.1 µM: read-out: Average inhibition rate at 0.1 μM (%); for inhibition at 1 µM: read-out: Average inhibition rate at 1 μM (%); for inhibition at 10 µM: read-out: Average inhibition rate at 10 μM (%)
Method in brief: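 IC50 came from a four-parameter fit of inhibition rates measured by anti-phosphotyrosine (PY99/HRP) ELISA at 490 nm. The reaction ran 1 hour at 37° C with 5 μM ATP, c-Met kinase domain protein and Poly(Glu,Tyr)4:1-coated wells, in HEPES pH 7.4 buffer containing MgCl2, MnCl2, Na3VO4 and DTT.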

BaF3/TPR-Met cell = experiment: Test III: growth inhibition of engineered BaF3/TPR-Met cells (MTT); assay type: cell-based; conditions: Mus musculus; for inhibition at 0.2 µM: read-out: Cell proliferation inhibition rate at 200 nM (%); for inhibition at 1 µM: read-out: Cell proliferation inhibition rate at 1 μM (%)
Procedure: Assays on the growth inhibition of the compounds against engineered BaF3/TPR-Met cell (engineered cell line having TPR-Met fusion protein stably expressed in cytoplasm, persistently activated, Met dependent sensitive cell line; BaF3 cell was purchased from DSMZ, German) were detected using microculture tetrozolium (MTT) staining. A certain amount of BaF3/TPR-Met cells at log phase were inoculated into 96-well culture plate at 90 µL per well, incubated overnight and then 10 μL compound at various concentrations or vehicle control (normal saline) was added, each concentration was tested in triplicate. After incubation with compound for 72 hours, the incubation was terminated, MTT solution (5 mg/mL) was added at 20 μL per well, incubated at 37° C. for 4 hours, then 100 μL triplet solution (10% SDS−5% isobutanol−0.01M HCl) was added, incubated overnight at 37° C., OD value was measured at 570 nm. […] Experiments were conducted in duplicates.

- inhibition at 10 µM [1]: 65.7%
- inhibition at 0.1 µM [2]: 67.5%
- inhibition at 1 µM [2]: 68.4%
- inhibition at 10 µM [2]: 74.1%
SMILES: CCN1CCC(n2cc(-c3cnc4cnn(S(=O)(=O)c5cnc6ccccn56)c4c3)cn2)CC1 [Example 53, 1-(imidazo[1,2-a]pyridine-3-sulfonyl)-6-{{1-[(1-ethyl)-4-piperidinyl]}-4-pyrazolyl}-1-H-pyrazolo[4,3-b]pyridine]
- inhibition at 1 µM (BaF3/TPR-Met cell; BaF3/TPR-Met, 1 μM, 72 hours): 90.9%

- inhibition at 10 µM [1]: 70.7%
- inhibition at 0.1 µM [2]: 55.9%
- inhibition at 1 µM [2]: 57.9%
- inhibition at 10 µM [2]: 62.1%
SMILES: CC(=O)N1CCC(n2cc(-c3cnc4cnn(S(=O)(=O)c5cnc6ccccn56)c4c3)cn2)CC1 [Example 54, 1-(imidazo[1,2-a]pyridine-3-sulfonyl)-6-{{1-[(1-acetyl)-4-piperidinyl]}-4-pyrazolyl}-1-H-pyrazolo[4,3-b]pyridine]
- inhibition at 0.2 µM (BaF3/TPR-Met cell; BaF3/TPR-Met, 200 nM, 72 hours): 88.3%
- inhibition at 1 µM (BaF3/TPR-Met cell; BaF3/TPR-Met, 1 μM, 72 hours): 89.6%

- inhibition at 10 µM [1]: 74.1%
- IC50 [2]: 1.3 ± 0.1 nM
- inhibition at 0.1 µM [2]: 58.8%
- inhibition at 1 µM [2]: 58.3%
- inhibition at 10 µM [2]: 60.8%
SMILES: O=C(C1CC1)N1CCC(n2cc(-c3cnc4cnn(S(=O)(=O)c5cnc6ccccn56)c4c3)cn2)CC1 [Example 55, 1-(imidazo[1,2-a]pyridine-3-sulfonyl)-6-{{1-[(1-cyclopropylcarbonyl)-4-piperidinyl]}-4-pyrazolyl}-1-H-pyrazolo[4,3-b]pyridine]
- inhibition at 0.2 µM (BaF3/TPR-Met cell; BaF3, 72 h): 89.3%
- inhibition at 1 µM (BaF3/TPR-Met cell; BaF3, 72 h): 89.8%

- inhibition at 10 µM [1]: 62.1%
- inhibition at 0.1 µM [2]: 53.3%
- inhibition at 1 µM [2]: 56.3%
- inhibition at 10 µM [2]: 58.9%
SMILES: O=C(C1CCCC1)N1CCC(n2cc(-c3cnc4cnn(S(=O)(=O)c5cnc6ccccn56)c4c3)cn2)CC1 [Example 56, 1-(imidazo[1,2-a]pyridine-3-sulfonyl)-6-{{1-[(1-cyclopentylcarbonyl)-4-piperidinyl]}-4-pyrazolyl}-1-H-pyrazolo[4,3-b]pyridine]
- inhibition at 0.2 µM (BaF3/TPR-Met cell; BaF3/TPR-Met, 200 nM, 72 hours): 79.1%
- inhibition at 1 µM (BaF3/TPR-Met cell; BaF3/TPR-Met, 1 μM, 72 hours): 90.6%

Further lines, the compound ahead of its results:

SMILES: CC(C)(C)OC(=O)N1CCC(n2cc(-c3cnc4cnn(S(=O)(=O)c5cnc6ccccn56)c4c3)cn2)CC1 [Example 44, 1-(imidazo[1,2-a]pyridine-3-sulfonyl)-6-{{1-[(1-t-butoxycarbonyl)-4-piperidinyl]}-4-pyrazolyl}-1-H-pyrazolo[4,3-b]pyridine]
- inhibition at 10 µM [1]: 87.5%
- IC50 [2]: 6.9 ± 1.9 nM
- inhibition at 0.1 µM [2]: 74.6%
- inhibition at 1 µM [2]: 78.6%
- inhibition at 10 µM [2]: 87.5%
- inhibition at 0.2 µM (BaF3/TPR-Met cell; BaF3, 72 h): 95%
- inhibition at 1 µM (BaF3/TPR-Met cell; BaF3, 72 h): 95.8%

SMILES: O=S(=O)(c1cnc2ccccn12)n1ncc2ncc(-c3cnn(C4CCNCC4)c3)cc21 [Example 45, 1-(imidazo[1,2-a]pyridine-3-sulfonyl)-6-{[1-(4-piperidinyl)]-4-pyrazolyl}-1-H-pyrazolo[4,3-b]pyridine]
- inhibition at 10 µM [1]: 89.6%
- IC50 [2]: 2.9 ± 0.6 nM
- inhibition at 0.1 µM [2]: 73.4%
- inhibition at 1 µM [2]: 76.5%
- inhibition at 10 µM [2]: 89.6%
- inhibition at 0.2 µM (BaF3/TPR-Met cell; BaF3, 72 h): 27.9%
- inhibition at 1 µM (BaF3/TPR-Met cell; BaF3, 72 h): 95.9%

SMILES: CC(C)(C)OC(=O)N1CCC(n2cc(-c3cnc4cnn(S(=O)(=O)c5cnn6cccnc56)c4c3)cn2)CC1 [Example 46, 1-(pyrazolo[1,5-a]pyrimidine-3-sulfonyl)-6-{{1-[(1-t-butoxycarbonyl)-4-piperidinyl]}-4-pyrazolyl}-1-H-pyrazolo[4,3-b]pyridine]
- inhibition at 10 µM [1]: 81.3%
- inhibition at 0.1 µM [2]: 55.9%
- inhibition at 1 µM [2]: 65%
- inhibition at 10 µM [2]: 81.3%
- inhibition at 0.2 µM (BaF3/TPR-Met cell; BaF3/TPR-Met, 200 nM, 72 hours): 33.7%
- inhibition at 1 µM (BaF3/TPR-Met cell; BaF3/TPR-Met, 1 μM, 72 hours): 68%

SMILES: CC(C)(C)OC(=O)N1CCC(n2cc(-c3cnc4cnn(S(=O)(=O)c5cnc6cccnn56)c4c3)cn2)CC1 [Example 49, 1-(imidazo[1,2-b]pyridazine-3-sulfonyl)-6-{{1-[(1-t-butoxycarbonyl)-4-piperidinyl]}-4-pyrazolyl}-1-H-pyrazolo[4,3-b]pyridine]
- inhibition at 10 µM [1]: 76.7%
- inhibition at 0.1 µM [2]: 71%
- inhibition at 1 µM [2]: 74.5%
- inhibition at 10 µM [2]: 76.7%
- inhibition at 0.2 µM (BaF3/TPR-Met cell; BaF3/TPR-Met, 200 nM, 72 hours): 28.4%
- inhibition at 1 µM (BaF3/TPR-Met cell; BaF3/TPR-Met, 1 μM, 72 hours): 90.5%

SMILES: O=S(=O)(c1cnc2cccnn12)n1ncc2ncc(-c3cnn(C4CCNCC4)c3)cc21 [Example 51]
- inhibition at 10 µM [1]: 72.3%
- inhibition at 0.1 µM [2]: 64.6%
- inhibition at 1 µM [2]: 66.7%
- inhibition at 10 µM [2]: 72.3%
- inhibition at 0.2 µM (BaF3/TPR-Met cell; BaF3/TPR-Met, 200 nM, 72 hours): 15.3%
- inhibition at 1 µM (BaF3/TPR-Met cell; BaF3/TPR-Met, 1 μM, 72 hours): 7.7%
